Molecular target: T1, human cloned orexin-2 receptor (Homo sapiens, UniProt O43614)
T1 construct: expressed in transfected cells
T1 sequence (O43614 1-444): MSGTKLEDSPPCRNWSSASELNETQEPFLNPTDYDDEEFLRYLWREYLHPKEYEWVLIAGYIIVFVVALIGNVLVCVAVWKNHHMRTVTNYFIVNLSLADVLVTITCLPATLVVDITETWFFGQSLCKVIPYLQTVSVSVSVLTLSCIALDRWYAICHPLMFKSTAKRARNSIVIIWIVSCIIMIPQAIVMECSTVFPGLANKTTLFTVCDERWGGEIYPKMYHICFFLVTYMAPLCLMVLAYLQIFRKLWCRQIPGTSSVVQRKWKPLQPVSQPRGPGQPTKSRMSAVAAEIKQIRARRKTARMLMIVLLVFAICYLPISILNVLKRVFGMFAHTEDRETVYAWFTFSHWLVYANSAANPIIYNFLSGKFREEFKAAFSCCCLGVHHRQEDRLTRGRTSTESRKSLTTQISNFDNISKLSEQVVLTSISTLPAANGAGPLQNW
Assay: Determination of antagonist affinity at human Orexin-2 receptor using FLIPR ([Ca2+]i, CHO cells, hOrexin A at EC80)
Format: cell-based
Conditions: functional pKi from IC50 by modified Cheng-Prusoff, read-out: fpKi
Text: Determination of Antagonist Affinity at Human Orexin-1 and 2 Receptors Using FLIPR
Adherent Chinese Hamster Ovary (CHO) cells, stably expressing the recombinant human Orexin-1 or human Orexin-2 receptors or Rat Basophilic Leukaemia Cells (RBL) stably expressing recombinant rat Orexin-1 or rat Orexin-2 receptors were maintained in culture in Alpha Minimum Essential Medium (Gibco/Invitrogen, cat. no.; 22571-020), supplemented with 10% decomplemented foetal bovine serum (Life Technologies, cat. no. 10106-078) and 400 μg/mL Geneticin G418 (Calbiochem, cat. no. 345810). Cells were grown as monolayers under 95%:5% air:CO2 at 37° C. […]
Compounds of the invention were tested in a final assay concentration range from 1.66×10^−5M to 1.58×10^−11M. […] This final concentration of hOrexin A was equivalent to the calculated EC80 for hOrexinA agonist potency in this test system. […]
The loaded cells were then incubated for 10 min at 37° C. with test compound. The plates were then placed into a FLIPR™ (Molecular Devices, UK) to monitor cell fluorescence (λex=488 nm, λEM=540 nm) (Sullivan E, Tucker E M, Dale I L. Measurement of [Ca^2]i using the fluometric imaging plate reader (FLIPR). In: Lambert DG (ed.), Calcium Signaling Protocols. New Jersey: Humana Press, 1999, 125-136). A baseline fluorescence reading was taken over a 5 to 10 second period, and then 10 μL of EC80 hOrexinA solution was added. […]

Ki: > 15.8 µM
SMILES: CCOc1ccc(C)nc1C(=O)N1C[C@@H]2C[C@@H]2C[C@H]1COc1ncc(C(F)(F)F)cn1 [Example E4, (1R,4S,6R)-3-{[3-(ethyloxy)-6-methyl-2-pyridinyl]carbonyl}-4-({[5-(trifluoromethyl)-2-pyrimidinyl]oxy}methyl)-3-azabicyclo[4.1.0]heptane]

Source: patent publication US20120040991A1, “3-AZABICYCLO [4.1.0] HEPTANES USED AS OREXIN ANTAGONISTS” (Glaxo Group Limited, priority 2009, published 2012)
